Data reported in US20160304552A1, “MODIFIED NUCLEIC ACID MOLECULES AND USES THEREOF” (MODERNA THERAPEUTICS, INC., priority 2013, published 2016).

Legend:
[1] = system: BJ fibroblast cells; assay: Cytokine screen in BJ fibroblast cells, human CCL-5/RANTES ELISA; assay type: cell-based; settings: BJ fibroblasts, 500 ng modRNA, 18 h to 22 h
Description: At 2 or 3 days prior to transfection, 100,000 BJ fibroblast cells (ATCC no. CRL-2522; Manassas, Va.) were harvested by treatment with trypsin-EDTA solution (LifeTechnologies, Grand Island, N.Y.) and seeded in a total volume of 500 ul EMEM medium (supplemented with 10% FCS and 10% Glutamax, both LifeTechnologies, Grand Island, N.Y.) per well in 24-well cell culture plates (Corning, Manassas, Va.). The cells were grown at 37° C. in a 5% CO2 atmosphere overnight. On the next day, 500 ng modRNA, harboring chemical modifications on the bases or the ribose units, were diluted in 25 ul final volume of OPTI-MEM (LifeTechnologies, Grand Island, N.Y.). Lipofectamine 2000 (LifeTechnologies, Grand Island, N.Y.) was used as transfection reagent and 1.0 ul was diluted in 25 ul final volume of OPTI-MEM. After 5 min incubation at room temperature, both solutions were combined and incubated an additional 15 min at room temperature. The 50 ul were added to the 500 ul cell culture medium containing the BJ fibroblast cells. The plates were then incubated as described above.
After 18 h to 22 h incubation, cell culture supernatants were collected and centrifuged at 10,000 rcf for 2 min. The cleared supernatants were transferred and analyzed with a human IFN-beta ELISA (R&D Systems, Minneapolis, Minn.; Cat. #s 41410-2) and human CCL-5/RANTES ELISA (R&D Systems, Minneapolis, Minn.; Cat. #s SRN00B) according to the manufacturer instructions. All samples were diluted until the determined values were within the linear range of the ELISA standard curves using a BioTek Synergy H1 plate reader (BioTek, Winooski, Vt.).

[2] = molecular target: T7 RNA polymerase (Escherichia phage T7, UniProt P00573); assay: In vitro transcription yields of modified mRNA; assay type: biochemical; settings: for EPO In Vitro Transcription yield: EPO mRNA made with the modified NTP(s); for GCSF In Vitro Transcription yield: GCSF mRNA made with the modified NTP(s); for Luc In Vitro Transcription yield: Luciferase mRNA made with the modified NTP(s)
Chain of T7 RNA polymerase (P00573 whole entry): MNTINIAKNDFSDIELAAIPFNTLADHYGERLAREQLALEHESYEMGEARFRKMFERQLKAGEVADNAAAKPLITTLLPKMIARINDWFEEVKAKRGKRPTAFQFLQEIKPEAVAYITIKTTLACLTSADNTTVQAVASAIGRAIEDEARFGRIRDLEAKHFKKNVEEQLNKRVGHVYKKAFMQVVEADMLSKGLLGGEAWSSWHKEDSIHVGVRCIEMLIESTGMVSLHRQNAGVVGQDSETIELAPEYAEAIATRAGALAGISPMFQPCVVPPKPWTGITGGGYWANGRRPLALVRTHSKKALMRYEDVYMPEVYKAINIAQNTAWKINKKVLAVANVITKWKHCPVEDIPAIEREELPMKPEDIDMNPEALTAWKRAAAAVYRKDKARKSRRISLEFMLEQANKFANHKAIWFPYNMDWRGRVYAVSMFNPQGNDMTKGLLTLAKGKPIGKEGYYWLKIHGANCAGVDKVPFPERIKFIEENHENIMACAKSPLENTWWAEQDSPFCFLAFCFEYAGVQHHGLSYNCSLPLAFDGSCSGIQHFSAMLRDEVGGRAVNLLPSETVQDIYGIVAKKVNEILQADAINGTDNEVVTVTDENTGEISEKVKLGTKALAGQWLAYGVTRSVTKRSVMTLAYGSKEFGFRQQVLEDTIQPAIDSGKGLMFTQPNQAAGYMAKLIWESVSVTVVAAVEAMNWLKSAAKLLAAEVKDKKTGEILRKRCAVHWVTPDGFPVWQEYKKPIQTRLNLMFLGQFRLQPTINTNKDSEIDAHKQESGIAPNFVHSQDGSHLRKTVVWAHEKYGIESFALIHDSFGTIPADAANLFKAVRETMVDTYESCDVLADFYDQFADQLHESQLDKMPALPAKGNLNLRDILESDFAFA
Description: The in vitro transcription reaction generates mRNA containing modified nucleotides or modified RNA. The input nucleotide triphosphate (NTP) mix is made in-house using natural and unnatural NTPs.
A typical in vitro transcription reaction includes the following:
Incubation at 37° C. for 3 hr-5 hrs.
The crude IVT mix may be stored at 4° C. overnight for cleanup the next day. 1 U of RNase-free DNase is then used to digest the original template. After 15 minutes of incubation at 37° C., the mRNA is purified using Ambion's […]™ Kit (Austin, Tex.) following the manufacturer's instructions. This kit can purify up to 500 μg of RNA. Following the cleanup, the RNA is quantified using the NanoDrop and analyzed by agarose gel electrophoresis to confirm the RNA is the proper size and that no degradation of the RNA has occurred.
Modified mRNAs in TE buffer (1 μl) are used for Nanodrop UV absorbance readings to quantitate the yield of each modified mRNA from an in vitro transcription reaction (UV absorbance traces are not shown).

[3] = system: HeLa cells; assay: Transfection in HeLa cells, human EPO modRNA (EPO ELISA of supernatant); assay type: cell-based; settings: Table 22, 18 h to 22 h
Description: The day before transfection, 20.000 HeLa cells (ATCC no. CCL-2; Manassas, Va.) were harvested by treatment with Trypsin-EDTA solution (LifeTechnologies, Grand Island, N.Y.) and seeded in a total volume of 100 ul EMEM medium (supplemented with 10% FCS and 1× Glutamax) per well in a 96-well cell culture plate (Corning, Manassas, Va.). The cells were grown at 37° C. in 5% CO2 atmosphere overnight. Next day, 83 ng of Luciferase modRNA or 250 ng of human GCSF modRNA, harboring chemical modifications on the bases or the ribose units, were diluted in 10 ul final volume of OPTI-MEM (LifeTechnologies, Grand Island, N.Y.). Lipofectamine 2000 (LifeTechnologies, Grand Island, N.Y.) was used as transfection reagent and 0.2 μl were diluted in 10 ul final volume of OPTI-MEM. After 5 min incubation at room temperature, both solutions were combined and incubated additional 15 min at room temperature. Then the 20 μl were added to the 100 ul cell culture medium containing the HeLa cells. The plates were then incubated as described before.
After 18 h to 22 h incubation, cell culture supernatants of cells expressing human GCSF or human EPO were collected and centrifuged at 10.000 rcf for 2 min. The cleared supernatants were transferred and analyzed with a human GCSF-specific or EPO ELISA kit (both from R&D Systems, Minneapolis, Minn.; Cat. #s SCS50, DEP00, respectively) according to the manufacturer instructions. All samples were diluted until the determined values were within the linear range of the human GCSF or EPO ELISA standard curve.

| Molecule | Luc mRNA RANTES [1] [pg/mL] | hEpo mRNA RANTES [1] [pg/mL] | hGCSF mRNA RANTES [1] [pg/mL] | EPO In Vitro Transcription yield [2] [mg] | GCSF In Vitro Transcription yield [2] [mg] | Luc In Vitro Transcription yield [2] [mg] | Epo Expression [3] [pg/mL] |
| --- | --- | --- | --- | --- | --- | --- | --- |
| 1-methyl-pseudouridine TP, ATP, GTP, CTP | 5473 | 8780 | 4816 | – | – | – | – |
| 2-thio-pseudouridine TP, ATP, GTP, CTP | 1706 | 5440 | 2106 | – | – | – | – |
| 5-bromocytidine TP, ATP, GTP, UTP | 1380 | 1343 | 1900 | – | – | – | – |
| 5-hydroxymethyl-cytidine TP, ATP, GTP, UTP | 9826 | 2160 | 9063 | – | – | – | – |
| 5-methoxy-uridine TP, ATP, GTP, UTP | 33.33 | -6.66 | -6.66 | – | – | – | – |
| 5-trifluromethylcytidine TP, ATP, GTP, UTP | 2303 | 7593 | 4203 | – | – | – | – |
| COC(=O)Cc1cn([C@@H]2O[C@H](COP(=O)(O)OP(=O)(O)OP(=O)(O)O)C(O)C2O)c(=O)[nH]c1=O (stereo in doubt) [00901013005 (358), 5-Methoxy carbonyl methyl-UTP] | – | – | – | 0.6432 | 0.6475 | 0.8825 | 8333 |
| CNc1ccn([C@@H]2O[C@H](COP(=O)(O)OP(=O)(O)OP(=O)(O)O)C(O)C2O)c(=O)n1 (stereo in doubt) [00901014004 (346), N4-methyl CTP] | – | – | – | 1.154 | 0.9028 | 1.124 | 90280 |
| Nc1ncnc2c1nnn2[C@@H]1O[C@H](COP(=O)(O)OP(=O)(O)OP(=O)(O)O)C(O)C1O (some centres unmarked) [00901011003 (377), 8-Aza-ATP] | – | – | – | 0.0055 | 0.03 | 0.0262 | – |
| O=c1[nH]c(=O)n([C@@H]2O[C@H](COP(=O)(O)OP(=O)(O)OP(=O)(O)O)C(O)C2O)cc1C(F)(F)F (some centres unmarked) [00901013002 (352), 5-Trifluoromethyl-UTP] | – | – | – | 0.3830 | 0.5102 | 0.3662 | – |
